Test results as given in patent US7205305B2, “Inhibitors of p38” (Vertex Pharmaceuticals Incorporated, priority 1996, dated 2007).

Tests used:
[1] = system: IL-1 production in whole blood; test: Inhibition of IL-1 production in LPS-stimulated whole blood ("WB"); format: cell-based, human; conditions: Homo sapiens
Method: (§1) Inhibitors were serially diluted in DMSO from a 20 mM stock. At least 6 serial dilutions were prepared. Then 4× inhibitor stocks were prepared by adding 4 μl of an inhibitor dilution to 1 ml of RPMI1640 medium/10% fetal bovine serum. The 4× inhibitor stocks contained inhibitor at concentrations of 80 μM, 32 μM, 12.8 μM, 5.12 μM, 2.048 μM, 0.819 μM, 0.328 μM, 0.131 μM, 0.052 μM, 0.021 μM etc. The 4× inhibitor stocks were pre-warmed at 37° C. until use.
(§2) Alternatively, whole blood containing an anti-coagulant was used directly in the assay.
(§3) We placed 100 μl of cell suspension or whole blood in each well of a 96-well cell culture plate. Then we added 50 μl of the 4× inhibitor stock to the cells. Finally, we added 50 μl of a lipopolysaccharide (LPS) working stock solution (16 ng/ml in cell culture medium) to give a final concentration of 4 ng/ml LPS in the assay. The total assay volume of the vehicle control was also adjusted to 200 μl by adding 50 μl cell culture medium. The PBMC cells or whole blood were then incubated overnight (for 12–15 hours) at 37° C./5% CO2 in a humidified atmosphere.
(§4) The next day the cells were mixed on a shaker for 3–5 minutes before centrifugation at 500×g for 5 minutes. Cell culture supernatants were harvested and analyzed by ELISA for levels of IL-1b (R & D Systems, Quantikine kits, #DBL50), TNF-α (BioSource, #KHC3012), IL-6 (Endogen, #EH2-IL6) and IL-8 (Endogen, #EH2-IL8) according to the instructions of the manufacturer. The ELISA data were used to generate dose-response curves from which IC50 values were derived.

[2] = system: TNF production in whole blood; test: Inhibition of TNF production in LPS-stimulated whole blood ("WB"); format: cell-based, human; conditions: Homo sapiens
Method: as §1, §2, §3, §4

[3] = system: TNF production in LPS-stimulated PBMCs; test: Inhibition of TNF production in LPS-stimulated PBMCs ("cell"); format: cell-based, human; conditions: Homo sapiens, PBMC
Method: as §1
(§5) Fresh human blood buffy cells were separated from other cells in a Vacutainer CPT from Becton & Dickinson (containing 4 ml blood and enough DPBS without Mg^2+/Ca^2+ to fill the tube) by centrifugation at 1500×g for 15 min. Peripheral blood mononuclear cells (PBMCs), located on top of the gradient in the Vacutainer, were removed and washed twice with RPMI1640 medium/10% fetal bovine serum. PBMCs were collected by centrifugation at 500×g for 10 min. The total cell number was determined using a Neubauer Cell Chamber and the cells were adjusted to a concentration of 4.8×10^6 cells/ml in cell culture medium (RPMI1640 supplemented with 10% fetal bovine serum).
as §3, §4

[4] = system: IL-6 production in whole blood; test: Inhibition of IL-6 production in LPS-stimulated whole blood ("WB"); format: cell-based, human; conditions: Homo sapiens
Method: as §1, §2, §3, §4

[5] = molecular target: activated p38 (Homo sapiens, UniProt Q16539); test: Inhibition of phosphorylation of EGF receptor peptide ("kinase"); format: biochemical; conditions: inhibition of phosphorylation of EGF receptor peptide by activated p38
Chain of activated p38 (Q16539 whole entry): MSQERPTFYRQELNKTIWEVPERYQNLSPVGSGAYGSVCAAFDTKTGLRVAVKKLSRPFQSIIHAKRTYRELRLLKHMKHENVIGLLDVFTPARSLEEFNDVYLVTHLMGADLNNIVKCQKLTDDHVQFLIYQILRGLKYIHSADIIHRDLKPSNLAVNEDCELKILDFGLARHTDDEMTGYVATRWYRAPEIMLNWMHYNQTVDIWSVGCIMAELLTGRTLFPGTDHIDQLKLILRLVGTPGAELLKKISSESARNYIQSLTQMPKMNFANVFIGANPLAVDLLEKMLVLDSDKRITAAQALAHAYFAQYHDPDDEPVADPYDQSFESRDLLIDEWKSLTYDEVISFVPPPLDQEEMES
Method: This assay was carried out in the presence of 10 mM MgCl2, 25 mM β-glycerophosphate, 10% glycerol and 100 mM HEPES buffer at pH 7.6. […] The stock solution was aliquotted into vials. A fixed volume of DMSO or inhibitor in DMSO (final concentration of DMSO in reaction was 5%) was introduced to each vial, mixed and incubated for 15 minutes at room temperature. EGF receptor peptide, […], a phosphoryl acceptor in p38-catalyzed kinase reaction (1), was added to each vial to a final concentration of 200 μM. The kinase reaction was initiated with ATP (100 μM) and the vials were incubated at 30° C. After 30 minutes, the reactions were quenched with equal volume of 10% trifluoroacetic acid (TFA).
The phosphorylated peptide was quantified by HPLC analysis. Separation of phosphorylated peptide from the unphosphorylated peptide was achieved on a reverse phase column (Deltapak, 5 μm, C18 100D, part no. 011795) with a binary gradient of water and acteonitrile, each containing 0.1% TFA.

[6] = system: IL-1 production in LPS-stimulated PBMCs; test: Inhibition of IL-1 production in LPS-stimulated PBMCs ("cell"); format: cell-based, human; conditions: Homo sapiens, PBMC
Method: as §1, §5, §3, §4

Structure (SMILES) | IC50 [1] | IC50 [2] | IC50 [3] | IC50 [4] | IC50 [5] | IC50 [6]
NC(=O)C(c1cccc(-c2ccccc2)n1)c1c(Cl)cccc1Cl (centres unmarked) [202/301] | ≥ 500 nM | ≥ 500 nM | 100 to 500 nM | ≥ 500 nM | ≤ 100 nM | 100 to 500 nM
O=c1ncn2nc(Sc3ccc(F)cc3)ccc2c1-c1c(Cl)cccc1Cl [Compound 12] | ≥ 500 nM | ≥ 500 nM | 100 to 500 nM | ≥ 500 nM | 100 to 1000 nM | 100 to 500 nM
Cc1ccccc1Sc1ccc2c(-c3c(Cl)cccc3Cl)c(=O)ncn2n1 [Compound 23] | ≥ 500 nM | ≥ 500 nM | ≥ 500 nM | ≥ 500 nM | 100 to 1000 nM | 100 to 500 nM
O=c1ncn2nc(Sc3ccc(F)c(Cl)c3)ccc2c1-c1c(Cl)cccc1Cl [Compound 24] | ≥ 500 nM | ≥ 500 nM | 100 to 500 nM |  | 100 to 1000 nM | 100 to 500 nM
COC(=O)c1ccccc1Sc1ccc2c(-c3c(Cl)cccc3Cl)c(=O)ncn2n1 [Compound 26] | ≥ 500 nM | ≥ 500 nM | 100 to 500 nM | ≥ 500 nM | ≥ 1000 nM | ≤ 100 nM
O=C(O)c1ccccc1Sc1ccc2c(-c3c(Cl)cccc3Cl)c(=O)ncn2n1 [Compound 27] | ≥ 500 nM | ≥ 500 nM | ≥ 500 nM | ≥ 500 nM | 100 to 1000 nM | ≥ 500 nM
O=c1ncn2nc(Sc3ccccn3)ccc2c1-c1c(Cl)cccc1Cl [Compound 30] | ≥ 500 nM |  | ≥ 500 nM |  | ≥ 1000 nM | ≥ 500 nM
Cc1ccc(Sc2ccc3c(-c4c(Cl)cccc4Cl)c(=O)ncn3n2)c(C)c1 [Compound 32] | ≥ 500 nM | ≥ 500 nM | 100 to 500 nM | ≥ 500 nM | 100 to 1000 nM | ≥ 500 nM
O=c1ncn2nc(Sc3ccccc3O)ccc2c1-c1c(Cl)cccc1Cl [Compound 33] | ≥ 500 nM | ≥ 500 nM | 100 to 500 nM | ≥ 500 nM | 100 to 1000 nM | 100 to 500 nM
Nc1cc(F)ccc1Sc1ccc2c(-c3c(Cl)cccc3Cl)c(=O)ncn2n1 [Compound 35] | ≥ 500 nM | ≥ 500 nM | ≥ 500 nM | ≥ 500 nM | 100 to 1000 nM | 100 to 500 nM
COc1ccc(-c2c(=O)ncn3nc(Sc4ccc(F)cc4)ccc23)c(Cl)c1OC [Compound 36] | ≥ 500 nM | ≥ 500 nM | ≥ 500 nM | ≥ 500 nM | ≥ 1000 nM | ≥ 500 nM
Nc1ccc(Cl)c(-c2c(=O)ncn3nc(Sc4ccc(Br)cc4)ccc23)c1Cl [Compound 37] | ≥ 500 nM | ≥ 500 nM | ≥ 500 nM | ≥ 500 nM | 100 to 1000 nM | 100 to 500 nM
O=c1ncn2nc(Sc3ccc(F)cc3Cl)ccc2c1-c1c(Cl)cccc1Cl [Compound 38] | 250 to 500 nM | 250 to 500 nM | 100 to 500 nM | 250 to 500 nM | ≤ 100 nM | ≤ 100 nM
O=C(CCl)Nc1ccc(-c2c(=O)ncn3nc(Sc4ccc(F)cc4)ccc23)c(Cl)c1 [Compound 49] | ≥ 500 nM | ≥ 500 nM | ≥ 500 nM | ≥ 500 nM | 100 to 1000 nM | ≤ 100 nM
COC(=O)c1ccccc1SC1=NN2CNC(=O)C(c3c(Cl)cccc3Cl)=C2C=C1 [Compound 101] | ≥ 500 nM | ≥ 500 nM | ≤ 100 nM | 250 to 500 nM | 100 to 1000 nM | ≤ 100 nM
Cc1ccccc1SC1=NN2CNC(=O)C(c3c(Cl)cccc3Cl)=C2C=C1 [Compound 102] | ≥ 500 nM | 250 to 500 nM | ≤ 100 nM | 250 to 500 nM | ≤ 100 nM | ≤ 100 nM
O=C1NCN2N=C(Sc3ccc(F)cc3)C=CC2=C1c1c(Cl)cccc1Cl [Compound 103] | ≥ 500 nM | 250 to 500 nM | ≤ 100 nM | 250 to 500 nM | ≤ 100 nM | ≤ 100 nM
O=C1NCN2N=C(Sc3ccccc3C(=O)O)C=CC2=C1c1c(Cl)cccc1Cl [Compound 104] | ≥ 500 nM | ≥ 500 nM | 100 to 500 nM | ≥ 500 nM | 100 to 1000 nM | 100 to 500 nM

Structure (SMILES) | IC50 [1] | IC50 [2] | IC50 [3] | IC50 [4] | IC50 [5] | IC50 [6]
Cc1cc(Cl)ccc1SC1=NN2CNC(=O)C(c3c(Cl)cccc3Cl)=C2C=C1 [Compound 106] | ≥ 500 nM | 250 to 500 nM | ≤ 100 nM | 250 to 500 nM | ≤ 100 nM | ≤ 100 nM
O=C1NCN2N=C(Sc3ccccc3CO)C=CC2=C1c1c(Cl)cccc1Cl [Compound 108] | 250 to 500 nM | ≤ 250 nM | ≤ 100 nM | ≤ 250 nM | ≤ 100 nM | 100 to 500 nM
COC(=O)CCc1ccc(SC2=NN3CNC(=O)C(c4c(Cl)cccc4Cl)=C3C=C2)cc1 [Compound 120] | ≥ 500 nM | ≥ 500 nM | ≥ 500 nM | ≥ 500 nM |  | 100 to 500 nM
NC(=O)C(c1cccc(-c2cccc(Cl)c2)n1)c1c(Cl)cccc1Cl (centres unmarked) [Compound 320] |  |  | 100 to 500 nM |  | ≤ 100 nM | 100 to 500 nM
COc1cccc(-c2cccc(C(C(N)=O)c3c(Cl)cccc3Cl)n2)c1 (centres unmarked) [Compound 322] |  |  | ≥ 500 nM |  | 100 to 1000 nM | ≥ 500 nM
NC(=O)C(c1cccc(-c2cccc(F)c2)n1)c1c(Cl)cccc1Cl (centres unmarked) [Compound 323] |  |  | 100 to 500 nM |  | 100 to 1000 nM | 100 to 500 nM
COc1ccccc1-c1cccc(C(C(N)=O)c2c(Cl)cccc2Cl)n1 (centres unmarked) [Compound 324] |  |  | ≥ 500 nM |  | 100 to 1000 nM | 100 to 500 nM
NC(=O)C(c1cccc(-c2ccc(F)c(Cl)c2)n1)c1c(F)cccc1Cl (centres unmarked) [Compound 333] |  |  | ≥ 500 nM |  | 100 to 1000 nM | ≥ 500 nM
NC(=O)C(c1cccc(-c2cccc(Cl)c2)n1)c1c(F)cccc1Cl (centres unmarked) [Compound 341] |  |  | 100 to 500 nM |  | 100 to 1000 nM | 100 to 500 nM
NC(=O)C(c1cccc(-c2ccccc2CN2CCCC2)n1)c1c(Cl)cccc1Cl (centres unmarked) [Compound 350] |  |  | ≥ 500 nM |  | ≥ 1000 nM | 100 to 500 nM
NC(=O)C(c1cccc(-c2ccccc2CNCCO)n1)c1c(Cl)cccc1Cl (centres unmarked) [Compound 351] |  |  | ≥ 500 nM |  | ≥ 1000 nM | ≥ 500 nM
NC(=O)C(c1cccc(-c2cccc(C(F)(F)F)c2)n1)c1c(F)cccc1Cl (centres unmarked) [Compound 353] |  |  | ≥ 500 nM |  | 100 to 1000 nM | ≥ 500 nM
NC(=O)C(c1cccc(-c2ccccc2CNc2ccccc2)n1)c1c(Cl)cccc1Cl (centres unmarked) [Compound 358] |  |  | ≥ 500 nM |  | 100 to 1000 nM | ≥ 500 nM
Cc1cc(F)ccc1-c1cccc(C(C(N)=O)c2c(F)cccc2Cl)n1 (centres unmarked) [Compound 361] |  |  | ≥ 500 nM |  | 100 to 1000 nM | 100 to 500 nM
Cc1ccccc1-c1cccc(N(C(N)=O)c2c(C)cccc2C)n1 [Compound 405] |  |  | 100 to 500 nM |  | ≤ 100 nM | ≤ 100 nM
Cc1ccc(-c2cccc(N(C(N)=O)c3c(Cl)cccc3Cl)n2)cc1 [Compound 406] |  |  | ≥ 500 nM |  | 100 to 1000 nM | 100 to 500 nM
Cc1cccc(C)c1N(C(N)=O)c1cccc(-c2ccc(F)cc2)n1 [Compound 407] |  |  | ≥ 500 nM |  | 100 to 1000 nM | 100 to 500 nM
NC(=O)N(c1cccc(-c2ccc(Cl)cc2)n1)c1c(Cl)cccc1Cl [Compound 408] |  |  | 100 to 500 nM |  | ≤ 100 nM | ≤ 100 nM
